Key:
Format in all cases: in vivo
[1] = test system: barnyardgrass (Echinochloa crus-galli L.): ECHCG; assay: Test Example 1 pre-emergence herbicidal activity, ECHCG; conditions: Rate 63 g a.i./ha, visually observed 20th to 23rd day after application
Procedure, shortened: (§1)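 Seeds sown in upland field soil in pots; one day later compound, formulated as wettable powder or emulsifiable concentrate and diluted with water at 500 L/ha, sprayed pre-emergence at a predetermined active-ingredient rate. Growth control scored visually 20–23 days after application, 0 (untreated-like) to 100 (complete kill) %.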

[2] = test system: crabgrass (Digitaria sanguinalis L.): DIGSA; assay: Test Example 1 pre-emergence herbicidal activity, DIGSA; conditions: Rate 63 g a.i./ha, visually observed 20th to 23rd day after application
Procedure, shortened: as §1

[3] = test system: green foxtail (Setaria viridis L.): SETVI; assay: Test Example 1 pre-emergence herbicidal activity, SETVI; conditions: Rate 63 g a.i./ha, visually observed 20th to 23rd day after application
Procedure, shortened: as §1

[4] = test system: redroot pigweed (Amaranthus retroflexus L.): AMARE; assay: Test Example 1 pre-emergence herbicidal activity, AMARE; conditions: Rate 63 g a.i./ha, visually observed 20th to 23rd day after application
Procedure, shortened: as §1

[5] = test system: prickly sida (Sida spinosa L.): SEDSP; assay: Test Example 1 pre-emergence herbicidal activity, SIDSP; conditions: Rate 63 g a.i./ha, visually observed 20th to 23rd day after application
Procedure, shortened: as §1

[6] = test system: velvetleaf (Abutilon theophrasti): ABUTH; assay: Test Example 1 pre-emergence herbicidal activity, ABUTH; conditions: Rate 63 g a.i./ha, visually observed 20th to 23rd day after application
Procedure, shortened: as §1

[7] = test system: rice (Oryza sativa L.): ORYSA; assay: Test Example 1 pre-emergence herbicidal activity, ORYSA; conditions: Rate 63 g a.i./ha, visually observed 20th to 23rd day after application
Procedure, shortened: as §1

[8] = test system: wheat (Triticum aestivum L.): TRZAX; assay: Test Example 1 pre-emergence herbicidal activity, TRZAX; conditions: Rate 63 g a.i./ha, visually observed 20th to 23rd day after application
Procedure, shortened: as §1

[9] = test system: corn (Zea mays L.): ZEAMX; assay: Test Example 1 pre-emergence herbicidal activity, ZEAMX; conditions: Rate 63 g a.i./ha, visually observed 20th to 23rd day after application
Procedure, shortened: as §1

[10] = test system: soybean (Glycine max Merr.): GLXMA; assay: Test Example 1 pre-emergence herbicidal activity, GLXMA; conditions: Rate 63 g a.i./ha, visually observed 20th to 23rd day after application
Procedure, shortened: as §1

[11] = test system: barnyardgrass (Echinochloa crus-galli L.), ECHCG; assay: Test Example 2 post-emergence (foliage treatment) herbicidal activity, ECHCG; conditions: 63 g a.i./ha
Procedure, shortened: (§2)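 Pot-grown plants in upland soil were sprayed over the foliage at ECHCG 1.1-2.1, DIGSA 1.0-2.0, AMARE 0.1-1.5 and ORYSA 1.0-2 leaf stage. Wettable powder or emulsifiable concentrate was diluted in water at 500 L/ha plus 0.1% (v/v) spreader. Growth control was scored visually 20-23 days later, 0 (untreated) to 100% (complete kill).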

[12] = test system: crabgrass (Digitaria sanguinalis L.), DIGSA; assay: Test Example 2 post-emergence (foliage treatment) herbicidal activity, DIGSA; conditions: 63 g a.i./ha
Procedure, shortened: as §2

[13] = test system: redroot pigweed (Amaranthus retroflexus L.), AMARE; assay: Test Example 2 post-emergence (foliage treatment) herbicidal activity, AMARE; conditions: 63 g a.i./ha
Procedure, shortened: as §2

[14] = test system: prickly sida (Sida spinosa L.), SIDSP; assay: Test Example 2 post-emergence (foliage treatment) herbicidal activity, SIDSP; conditions: 63 g a.i./ha
Procedure, shortened: (§3)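 Foliar spray of formulated compound (500 L/ha dilution water, 0.1% v/v spreader) onto young potted plants at defined leaf stages. Scored 0-100% by visual inspection 20-23 d post-spray.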

[15] = test system: velvetleaf (Abutilon theophrasti), ABUTH; assay: Test Example 2 post-emergence (foliage treatment) herbicidal activity, ABUTH; conditions: 63 g a.i./ha
Procedure, shortened: as §3

[16] = test system: rice (Oryza sativa L.), ORYSA; assay: Test Example 2 post-emergence (foliage treatment) herbicidal activity, ORYSA; conditions: 63 g a.i./ha
Procedure, shortened: as §2

[17] = test system: wheat (Triticum aestivum L.), TRZAX; assay: Test Example 2 post-emergence (foliage treatment) herbicidal activity, TRZAX; conditions: 63 g a.i./ha
Procedure, shortened: as §3

[18] = test system: corn (Zea mays L.), ZEAMX; assay: Test Example 2 post-emergence (foliage treatment) herbicidal activity, ZEAMX; conditions: 63 g a.i./ha
Procedure, shortened: as §3

[19] = test system: soybean (Glycine max Merr.), GLXMA; assay: Test Example 2 post-emergence (foliage treatment) herbicidal activity, GLXMA; conditions: 63 g a.i./ha
Procedure, shortened: as §3

[20] = test system: barnyardgrass (Echinochiloa oryzicola: ECHOR); assay: Test Example 3 water application herbicidal activity (paddy), ECHOR; conditions: 63 g a.i./ha, water application under submerged condition at 0.5 leaf stage, visually observed 14th day after application; 0 = untreated control, 100 = complete kill
Procedure, shortened: (§4)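 Flooded paddy-soil pots in greenhouse; ECHOR and SCPJO sown, SAGPY tubers planted a day later, compound applied into 3–4 cm water at weeds' 0.5-leaf stage. Rice transplanted at 2-leaf stage, treated day 4 after transplanting. Visual growth control 0–100% at 14 days (weeds) and 21 days (rice) after application.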

[21] = test system: japanese bulrush (Scirpus juncoides: SCPJO); assay: Test Example 3 water application herbicidal activity (paddy), SCPJO; conditions: 63 g a.i./ha, water application under submerged condition at 0.5 leaf stage, visually observed 14th day after application; 0 = untreated control, 100 = complete kill
Procedure, shortened: as §4

[22] = test system: japanese ribbon wapato (Sagittaria pygmaea: SA GPY); assay: Test Example 3 water application herbicidal activity (paddy), SAGPY; conditions: 63 g a.i./ha, water application under submerged condition, tubers planted, visually observed 14th day after application; 0 = untreated control, 100 = complete kill
Procedure, shortened: as §4

[23] = test system: rice (Oryza sativa L.: ORYSA); assay: Test Example 3 water application herbicidal activity (paddy), transplanted rice ORYSA; conditions: 63 g a.i./ha, water application 4th day after transplantation of 2 leaf stage rice, visually observed 21st day after application; 0 = untreated control, 100 = complete kill
Text: Paddy field soil was put into a 1/1,000,000 ha pot and seeds of barnyardgrass (Echinochiloa oryzicola: ECHOR) and japanese bulrush (Scirpus juncoides: SCPJO) were sown and slightly covered with soil. Then the pot was left to stand still in a greenhouse in a state where the depth of flooding water was from 0.5 to 1 cm, and one day later, tubers of japanese ribbon wapato (Sagittaria pygmaea: SA GPY) were planted. Thereafter, the depth of flooding water was maintained at a level of from 3 to 4 cm, and when barnyardgrass and japanese bulrush reached a 0.5 leaf stage, an aqueous diluted solution of a wettable powder or emulsifiable concentrate having the compound of the present invention formulated in accordance with a usual formulation method, was uniformly applied under submerged condition by a pipette so that the dose of the active ingredient would be at a predetermined level. On the other hand, paddy filed soil was put into a 1/1,000,000 ha pot and puddled and leveled, and the depth of flooding water was from 3 to 4 cm. One day later, rice (Oryza sativa L.: ORYSA) of 2 leaf stage was transplanted in a depth of 3 cm. On the 4th day after the transplantation, the compound of the present invention was applied in the same manner as described above. On the 14th day after the application of the herbicide, the growth of barnyardgrass, japanese burlush and japanese ribbon wapato was visually observed and on the 21st day after the application of the herbicide, the growth of rice was visually observed, and the herbicidal effects were evaluated by growth controlling degrees (%) ranging from 0 (equivalent to the untreated control) to 100 (complete kill), whereby the results shown in Table 6, were obtained. Compound Nos. in Table 6 correspond to Compound Nos. in Table 1 and 2 given hereinbefore.

[24] = test system: green foxtail (Setaria viridis L.), SETVI; assay: Test Example 2 post-emergence (foliage treatment) herbicidal activity, SETVI; conditions: 63 g a.i./ha
Procedure, shortened: as §3

Row | SMILES | Pre-emergence Herbicidal Activity ECHCG (growth controlling degree) [1] [%] | Pre-emergence Herbicidal Activity DIGSP (growth controlling degree) [2] [%] | Pre-emergence Herbicidal Activity SETVI (growth controlling degree) [3] [%] | Pre-emergence Herbicidal Activity AMARE (growth controlling degree) [4] [%] | Pre-emergence Herbicidal Activity SIDSP (growth controlling degree) [5] [%] | Pre-emergence Herbicidal Activity ABUTH (growth controlling degree) [6] [%] | Pre-emergence Herbicidal Activity ORYSA (growth controlling degree) [7] [%] | Pre-emergence Herbicidal Activity TRZAX (growth controlling degree) [8] [%] | Pre-emergence Herbicidal Activity ZEAMX (growth controlling degree) [9] [%] | Pre-emergence Herbicidal Activity GLXMA (growth controlling degree) [10] [%] | growth controlling degree, ECHCO [11] [%] | growth controlling degree, DIGSP [12] [%] | growth controlling degree, SIDSP [14] [%] | growth controlling degree, ABUTH [15] [%] | growth controlling degree, ORYSA [16] [%] | growth controlling degree, TRZAX [17] [%] | growth controlling degree, ZEAMX [18] [%] | growth controlling degree, GLXMA [19] [%] | growth controlling degrees (%) ECHOR [20] [%] | growth controlling degrees (%) SCPJO [21] [%] | also measured
1 | COc1c(Cl)cc(F)c(-c2nn(C)c(OC(F)F)c2Cl)c1NC(=O)c1ccc(C#N)cc1 [Compound 1-32] | 95 | 100 | 100 | 100 | 100 | 100 | 60 | 10 | 10 | 10 | 95 | 70 | 100 | 100 | 90 | 50 | 95 | 80 | 100 | 70 | growth controlling degree, AMARE [13]: 100%; growth controlling degrees (%) SAGPY [22]: 100%; growth controlling degrees (%) ORYSA [23]: 50%
2 | Cn1nc(-c2c(F)cc(Cl)c(OC(F)F)c2NS(C)(=O)=O)c(Cl)c1OC(F)F [Compound 1-84] | 0 | 50 | 20 | 70 | 0 | 0 | 10 | 0 | 0 | 0 | 20 | 0 | 70 | 80 | 10 | 0 | 20 | 50 | 60 | 90 | growth controlling degree, SETVI [24]: 10%; growth controlling degrees (%) SAGPY [22]: 95%; growth controlling degrees (%) ORYSA [23]: 30%
